Measured values published in patent publication US9493486B2, “Diazaspirocycloalkane and azaspirocycloalkane” (Hoffmann-La Roche Inc., priority 2012, dated 2016).
pIC50: −log10 of the molar value.

Biological target: ATX (human His-tagged) (Homo sapiens (Human), UniProt Q13822)
Assay: Human ATX enzyme inhibition assay (fluorescence quenching, MR121 substrate)
Assay type: biochemical
Conditions: 30 nM ATX, 1 μM MR121 substrate, 30° C.
Description: Human ATX Enzyme Inhibition Assay
Assay working solutions were made as follows:

SMILES | pIC50
O=C(OCc1cc(F)cc(OC(F)(F)F)c1)N1CCC2(CCCN(C(=O)c3ccc4[nH]nnc4c3)C2)C1 (stereo not shown) [Example 1.20, 3-fluoro-5-(trifluoromethoxy)benzyl 7-(1H-benzo[d][1,2,3]triazole-5-carbonyl)-2,7-diazaspiro[4.5]decane-2-carboxylate] | 6.92
O=C(OCc1cc(Cl)cc(Cl)c1)N1CCC2(CC1)CN(C(=O)c1ccc3[nH]nnc3c1)C2 [Example 1, 3,5-Dichlorobenzyl 2-(1H-benzo[d][1,2,3]triazole-5-carbonyl)-2,7-diazaspiro[3.5]nonane-7-carboxylate] | 7.82
CS(=O)(=O)c1cc(Cl)cc(COC(=O)N2CCC3(CC2)CN(S(=O)(=O)c2ccc4[nH]c(=O)sc4c2)C3)c1 [Example 3.6, 3-chloro-5-(methylsulfonyl)benzyl 2-(2-oxo-2,3-dihydrobenzo[d]thiazol-6-ylsulfonyl)-2,7-diazaspiro[3.5]nonane-7-carboxylate] | 7.17
O=C(OCc1cc(Cl)cc(Cl)c1)N1CCC2(C1)CN(C(=O)c1ccc3[nH]nnc3c1)C2 [Example 1.14, 3,5-dichlorobenzyl 2-(1H-benzo[d][1,2,3]triazole-5-carbonyl)-2,6-diazaspiro[3.4]octane-6-carboxylate] | 7.13
O=C(CCc1cc(Cl)cc(Cl)c1)N1CCC2(CC1)CN(C(=O)c1ccc3[nH]nnc3c1)C2 [Example 1.04, 1-(2-(1H-benzo[d][1,2,3]triazole-5-carbonyl)-2,7-diazaspiro[3.5]nonan-7-yl)-3-(3,5-dichlorophenyl)propan-1-one] | 6.94
O=C(CCc1ccc(OC(F)(F)F)cc1)N1CCC2(CC1)CN(C(=O)c1ccc3[nH]nnc3c1)C2 [Example 1.24, 1-(2-(1H-benzo[d][1,2,3]triazole-5-carbonyl)-2,7-diazaspiro[3.5]nonan-7-yl)-3-(4-(trifluoromethoxy)phenyl)propan-1-one] | 7.92
O=C(OCc1cc(Cl)cc(Cl)c1)N1CCC2(CC1)CN(C(=O)c1ccc3[nH]c(=O)oc3c1)C2 [Example 5, 3,5-Dichlorobenzyl 2-(2-oxo-2,3-dihydrobenzo[d]oxazole-6-carbonyl)-2,7-diazaspiro[3.5]nonane-7-carboxylate] | 8.15
O=C(NC1CC2(C1)CN(C(=O)CCCc1ccccc1)C2)c1ccc2[nH]nnc2c1 [Example 1.08, N-(2-(4-phenylbutanoyl)-2-azaspiro[3.3]heptan-6-yl)-1H-benzo[d][1,2,3]triazole-5-carboxamide] | 5.47

Further lines, results first:

pIC50 | SMILES
7.66 | CS(=O)(=O)c1cc(Cl)cc(COC(=O)N2CCC3(CC2)CN(S(=O)(=O)c2ccc4[nH]c(=O)oc4c2)C3)c1 [Example 12.31, 3-chloro-5-(methylsulfonyl)benzyl 2-(2-oxo-2,3-dihydrobenzo[d]oxazol-6-ylsulfonyl)-2,7-diazaspiro[3.5]nonane-7-carboxylate]
8.60 | O=C(OCc1ccc(OCC(F)(F)F)cc1F)N1CCC2(CC1)CN(C(=O)C1CCc3nn[nH]c3C1)C2 (stereo not shown) [Example 12.38, 2-fluoro-4-(2,2,2-trifluoroethoxy)benzyl 2-(4,5,6,7-tetrahydro-1H-benzo[d][1,2,3]triazole-6-carbonyl)-2,7-diazaspiro[3.5]nonane-7-carboxylate]
7.27 | O=C(NC1CC2(C1)CN(C(=O)OCc1cc(Cl)cc(OC(F)(F)F)c1)C2)c1ccc2[nH]nnc2c1 [Example 12.18, 6-[(1H-benzotriazole-5-carbonyl)-amino]-2-aza-spiro[3.3]heptane-2-carboxylic acid 3-chloro-5-trifluoromethoxy-benzyl ester]
9.00 | Cc1cc(OC(F)(F)F)ccc1COC(=O)N1CCC2(CC1)CN(C(=O)C1CCc3[nH]nnc3C1)C2 (stereo not shown) [Example 12.37, [2-methyl-4-(trifluoromethoxy)phenyl]methyl 2-(4,5,6,7-tetrahydro-1H-benzotriazole-5-carbonyl)-2,7-diazaspiro[3.5]nonane-7-carboxylate]
7.36 | O=C(NCc1cnn[nH]1)C1CC2(CCN(C(=O)OCc3cc(Cl)cc(Cl)c3)CC2)C1 [Example 12.32, 2-[(3H-[1,2,3]triazol-4-ylmethyl)-carbamoyl]-7-aza-spiro[3.5]nonane-7-carboxylic acid 3,5-dichloro-benzyl ester]
6.36 | O=C(OCc1ccc(C(F)(F)F)cc1)N1CCC2(CC1)CN(C(=O)c1ccc3[nH]c(=O)oc3c1)C2 [Example 12.22, 4-(trifluoromethyl)benzyl 2-(2-oxo-2,3-dihydrobenzo[d]oxazole-6-carbonyl)-2,7-diazaspiro[3.5]nonane-7-carboxylate]
5.49 | O=C(c1ccc2[nH]nnc2c1)N1CC2(CCN(C(=O)[C@@H]3C[C@H]3c3cc(F)cc(F)c3)CC2)C1 (relative stereo) [Example 6.5, (2-(1H-benzo[d][1,2,3]triazole-5-carbonyl)-2,7-diazaspiro[3.5]nonan-7-yl)(trans-2-(3,5-difluorophenyl)cyclopropyl)methanone]
7.28 | CS(=O)(=O)c1cc(COC(=O)N2CCC3(CC2)CN(C(=O)c2ccc4[nH]c(=O)oc4c2)C3)cc(C(F)(F)F)c1 [Example 12.26, 3-(methylsulfonyl)-5-(trifluoromethyl)benzyl 2-(2-oxo-2,3-dihydrobenzo[d]oxazole-6-carbonyl)-2,7-diazaspiro[3.5]nonane-7-carboxylate]
5.25 | N#Cc1cc(Cl)cc(COC(=O)N2CC3(CC(NC(=O)c4ccc5[nH]nnc5c4)C3)C2)c1 [Example 12.20, 6-[(1H-benzotriazole-5-carbonyl)-amino]-2-aza-spiro[3.3]heptane-2-carboxylic acid 3-chloro-5-cyano-benzyl ester]
7.00 | O=C(OCc1ccc(C(F)(F)F)cc1F)N1CCC2(CC1)CN(C(=O)[C@H]1CCc3[nH]nnc3C1)C2 [Example 16A, (S)-[2-Fluoro-4-(trifluoromethyl)phenyl]methyl 2-[4,5,6,7-tetrahydro-1H-benzotriazole-5-carbonyl]-2,7-diazaspiro[3.5]nonane-7-carboxylate]
6.54 | O=C(OCc1cc(Cl)cc(Cl)n1)N1CCC2(CC1)CN(C(=O)c1ccc3[nH]nnc3c1)C2 [Example 12.10, (4,6-dichloropyridin-2-yl)methyl 2-(1H-benzo[d][1,2,3]triazole-5-carbonyl)-2,7-diazaspiro[3.5]nonane-7-carboxylate]
7.46 | O=C(OCc1ccc(C(F)(F)F)cc1)N1CCC2(CC1)CN(C(=O)c1ccc3[nH]nnc3c1)C2 [Example 12.15, 4-(trifluoromethyl)benzyl 2-(1H-benzo[d][1,2,3]triazole-5-carbonyl)-2,7-diazaspiro[3.5]nonane-7-carboxylate]
7.66 | O=C(/C=C/c1cc(Cl)cc(Cl)c1)N1CCC2(CC1)CN(C(=O)c1ccc3[nH]c(=O)oc3c1)C2 [Example 6.4, 6-{7-[(E)-3-(3,5-dichloro-phenyl)-acryloyl]-2,7-diaza-spiro[3.5]nonane-2-carbonyl}-3H-benzooxazol-2-one]
8.60 | O=C(OCc1ccc(OCC(F)(F)F)c(F)c1)N1CCC2(CC1)CN(C(=O)C1CCc3nn[nH]c3C1)C2 (stereo not shown) [Example 12.40, 3-fluoro-4-(2,2,2-trifluoroethoxy)benzyl 2-(4,5,6,7-tetrahydro-1H-benzo[d][1,2,3]triazole-6-carbonyl)-2,7-diazaspiro[3.5]nonane-7-carboxylate]
